This passage reports IC50 results from patent US11802129B1, “Pyrido[3,4-b]indol-1-one compounds as anticancer agents” (KING FAISAL UNIVERSITY, priority 2023, dated 2023).

One experiment deals with MCF7 (breast). The experiment in a line: In vitro cytotoxic activity (MTT) assay, MCF7. The class given is cell-based. The following applies: Human MCF7 (breast) cells, exposed for 96 hours. As for the experimental part:
(§1) Compounds 1-10 were screened for their in vitro cytotoxic activity utilizing a 3-(4,5-dimethyl-thiazol-2-yl)-2,5-diphenyltetrazolium bromide (MTT) assay against selected cancer murine and human cancer cell lines (T. Mosmann, J. Immunol. Meth., 1983, 65, 55-63). The cells were cultured at 37° C. in RMPI1640 medium supplemented with 10% fetal bovine serum, 50 IU/mL penicillin, and 50 μg/mL streptomycin in a 5% CO2 incubator. All cells were sub-cultured 3 times/week by trypsinisation. Viable cells were seeded and allowed to adhere for 12 h before a test drug was added in 96-well plates at an initial density of 1.0×10^5 cells/mL. Tumour cell lines were separately exposed to various concentrations of the tested compounds followed by incubation at a temperature of 37° C. during 4 days inside a medium of fresh RMPI 1640. Cells were subsequently incubated at 37° C. using MTT at 0.5 mg/mL during 4 h. After removal of supernatant, formazan crystals were dissolved in isopropanol and the optical density was measured at 570 nm. CX-4945 has been used as a positive control.

In a further experiment the test system is A375 (melanoma). Put plainly: In vitro cytotoxic activity (MTT) assay, A375. It is filed as cell-based. The following applies: A-375; Human A375 (melanoma) cells, exposed for 96 hours. On the procedure:
as §1

For a further experiment, the system named is HL60 (leukemia). The experiment in a line: In vitro cytotoxic activity (MTT) assay, HL60. The class given is cell-based. The following applies: HL-60; Human HL60 (leukemia) cells, exposed for 96 hours. As for the experimental part:
as §1

A further experiment concerns Leukemia P388. The experiment in a line: In vitro cytotoxic activity (MTT) assay, Leukemia P388. It is filed as cell-based. The following applies: Mus musculus; Murine Leukemia P388 cells, exposed for 96 hours. On the procedure: as §1
The test system of a further experiment is PC3 (prostate). The experiment in a line: In vitro cytotoxic activity (MTT) assay, PC3. It is filed as cell-based. The following applies: Prostate cell; Human PC3 (prostate) cells, exposed for 96 hours. As for the experimental part: as §1
In a further experiment the target is T1, CK2 (Homo sapiens, UniProt P68400).
T1 construct: purchased Upstate Biotechnology, Lake Placid, NY, USA
T1 sequence (P68400 whole entry): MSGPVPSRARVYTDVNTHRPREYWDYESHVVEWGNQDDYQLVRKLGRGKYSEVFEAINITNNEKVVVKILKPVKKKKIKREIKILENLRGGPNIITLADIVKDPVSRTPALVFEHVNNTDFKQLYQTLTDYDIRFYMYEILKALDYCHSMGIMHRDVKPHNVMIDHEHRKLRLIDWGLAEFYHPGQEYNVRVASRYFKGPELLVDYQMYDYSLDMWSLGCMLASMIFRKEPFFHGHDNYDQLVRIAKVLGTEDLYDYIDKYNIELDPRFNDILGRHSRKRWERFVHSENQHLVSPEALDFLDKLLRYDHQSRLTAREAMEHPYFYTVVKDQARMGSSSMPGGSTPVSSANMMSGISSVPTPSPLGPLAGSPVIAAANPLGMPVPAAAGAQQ
Put plainly: In vitro CK2 inhibitory assay (CK2 assay kit). The class given is biochemical. The following applies: CK2 assay kit (Upstate Biotechnology). On the procedure:
CK2 activity was assessed by using a CK2 assay kit (Upstate Biotechnology, Lake Placid, NY, USA) according to the manufacturer's instructions [T. Tiganis, C. M. House, B. E. Kemp, Arch. Biochem. Biophys. 1996,325, 289-294].

The test system of the next experiment is H1299 (lung). Put plainly: In vitro cytotoxic activity (MTT) assay, H1299. The class given is cell-based. The conditions noted are these: NCI-H1299; Human H1299 (lung) cells, exposed for 96 hours. As for the experimental part:
as §1

A further experiment has as its system B16 melanoma. The experiment in a line: In vitro cytotoxic activity (MTT) assay, B16 melanoma. It is filed as cell-based. The following applies: Mus musculus; Murine B16 melanoma cells, exposed for 96 hours. As for the experimental part:
as §1

A further experiment concerns MDA-MB-231 (breast). Put plainly: In vitro cytotoxic activity (MTT) assay, MDA-MB-231. The class given is cell-based. The conditions noted are these: Human MDA-MB-231 (breast) cells, exposed for 96 hours. On the procedure:
as §1

The test system of the next experiment is Colon C38 adenocarcinoma. Put plainly: In vitro cytotoxic activity (MTT) assay, Colon C38 adenocarcinoma. The class given is cell-based. The following applies: Mus musculus; Murine Colon C38 adenocarcinoma cells, exposed for 96 hours. As for the experimental part: as §1
A further experiment has as its system HCT116 (colon). The experiment in a line: In vitro cytotoxic activity (MTT) assay, HCT116. The class given is cell-based. The conditions noted are these: HCT-116; Human HCT116 (colon) cells, exposed for 96 hours. As for the experimental part:
as §1

Another experiment concerns MIAPaCa-2 (pancreas). Put plainly: In vitro cytotoxic activity (MTT) assay, MIAPaCa-2. The class given is cell-based. The conditions noted are these: MIA PaCa-2; Human MIAPaCa-2 (pancreas) cells, exposed for 96 hours. As for the experimental part: as §1

`O=C(O)c1ccc2[nH]c3c(=O)[nH]cc(Nc4cccc(Cl)c4)c3c2c1` [Example 3, 4-((3-chlorophenyl)amino)-1-oxo-2,9-dihydro-1H-pyrido[3,4-b]indole-6-carboxylic acid]: the IC50 in the experiment with MCF7 (breast) amounted to 7.5 µM; in the experiment on A375 (melanoma), 4.4 µM; with HL60 (leukemia), 6.3 µM; with Leukemia P388, 5.5 µM; in the experiment with PC3 (prostate) it was 2.6 µM; against CK2, 0.005 µM. Further, the IC50 in the experiment with H1299 (lung) was found to be 2.1 µM; in the experiment on B16 melanoma, 6.8 µM; in the experiment on MDA-MB-231 (breast), 6.6 µM; in the experiment with Colon C38 adenocarcinoma, 4.4 µM; in the experiment with HCT116 (colon), 3.3 µM; in the experiment on MIAPaCa-2 (pancreas), 5.7 µM.
